# Laboratory results as given in the supplement of paper PMC10307832.
# Columns and labels:
# Test in all cases: relative viability (nuclei count vs DMSO), 5 days (fraction); higher = more cells survive
# Pictilisib + Dasatinib = compound: CS(=O)(=O)N1CCN(Cc2cc3nc(-c4cccc5[nH]ncc45)nc(N4CCOCC4)c3s2)CC1 [Pictilisib] + Cc1nc(Nc2ncc(C(=O)Nc3c(C)cccc3Cl)s2)cc(N2CCN(CCO)CC2)n1 [Dasatinib] (partner 0.075 µM)
# Procedure, shortened: (§1)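 Values are medians from duplicate plates. Each reflects relative viability, defined as the nuclei count of treated wells over that of vehicle wells. Lung cancer cell lines in 1536-well plates were pin-tool dosed one day after seeding with one drug alone or with a fixed anchor-drug dose plus five library-drug doses (not always all listed) in √10 steps, then fixed, stained and imaged at 4× after 5 days.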
# MK-2206 + Linsitinib = compound: NC1(c2ccc(-c3nc4ccn5c(=O)[nH]nc5c4cc3-c3ccccc3)cc2)CCC1 [MK-2206] + C[C@]1(O)C[C@@H](c2nc(-c3ccc4ccc(-c5ccccc5)nc4c3)c3c(N)nccn32)C1 [Linsitinib] (partner 1 µM)
# Procedure, shortened: as §1
# MK-2206 + Navitoclax = compound: NC1(c2ccc(-c3nc4ccn5c(=O)[nH]nc5c4cc3-c3ccccc3)cc2)CCC1 [MK-2206] + CC1(C)CCC(c2ccc(Cl)cc2)=C(CN2CCN(c3ccc(C(=O)NS(=O)(=O)c4ccc(N[C@H](CCN5CCOCC5)CSc5ccccc5)c(S(=O)(=O)C(F)(F)F)c4)cc3)CC2)C1 [Navitoclax] (partner 0.5 µM)
# Procedure, shortened: as §1
# MK-2206 + Decitabine = compound: NC1(c2ccc(-c3nc4ccn5c(=O)[nH]nc5c4cc3-c3ccccc3)cc2)CCC1 [MK-2206] + Nc1ncn([C@H]2C[C@H](O)[C@@H](CO)O2)c(=O)n1 [Decitabine] (partner 2 µM)
# Procedure, shortened: as §1
# MK-2206 + Palbociclib = compound: NC1(c2ccc(-c3nc4ccn5c(=O)[nH]nc5c4cc3-c3ccccc3)cc2)CCC1 [MK-2206] + CC(=O)c1c(C)c2cnc(Nc3ccc(N4CCNCC4)cn3)nc2n(C2CCCC2)c1=O [Palbociclib] (partner 0.5 µM)
# Procedure, shortened: as §1
Cell Line,relative viability (Pictilisib + Dasatinib; first compound 0.02 µM),relative viability (Pictilisib + Dasatinib; first compound 0.06325 µM),relative viability (Pictilisib + Dasatinib; first compound 0.6325 µM),relative viability (Pictilisib + Dasatinib; first compound 2 µM),relative viability (MK-2206 + Linsitinib; first compound 0.01 µM),relative viability (MK-2206 + Linsitinib; first compound 0.03162 µM),relative viability (MK-2206 + Linsitinib; first compound 0.3162 µM),relative viability (MK-2206 + Linsitinib; first compound 1 µM),relative viability (MK-2206 + Navitoclax; first compound 0.01 µM),relative viability (MK-2206 + Navitoclax; first compound 0.03162 µM),relative viability (MK-2206 + Navitoclax; first compound 0.3162 µM),relative viability (MK-2206 + Navitoclax; first compound 1 µM),relative viability (MK-2206 + Decitabine; first compound 0.01 µM),relative viability (MK-2206 + Decitabine; first compound 0.03162 µM),relative viability (MK-2206 + Decitabine; first compound 0.3162 µM),relative viability (MK-2206 + Decitabine; first compound 1 µM),relative viability (MK-2206 + Palbociclib; first compound 0.01 µM),relative viability (MK-2206 + Palbociclib; first compound 0.03162 µM),relative viability (MK-2206 + Palbociclib; first compound 0.3162 µM),relative viability (MK-2206 + Palbociclib; first compound 1 µM)
NCI-H1793,0.361,0.39,0.351,0.243,0.81,0.886,0.641,0.675,0.521,0.475,0.352,0.463,0.477,0.552,0.439,0.435,0.277,0.329,0.272,0.252
BEN,0.351,0.3,0.355,0.285,0.924,1.01,1.04,1.03,0.069,0.0836,0.0745,0.0466,0.909,0.673,0.679,0.643,0.493,0.516,0.522,0.498
NCI-H647,0.195,0.172,0.108,0.0934,1.18,1.1,1.07,1.03,1.02,1.21,0.969,1.02,0.39,0.365,0.414,0.408,0.389,0.403,0.349,0.264
PC-14,0.274,0.291,0.17,0.095,0.869,1.03,0.862,0.92,0.956,1.05,1.1,1.01,0.22,0.248,0.215,0.253,0.512,0.481,0.589,0.474
HCC-78,0.379,0.359,0.222,0.189,0.505,0.576,0.388,0.316,0.735,0.875,0.732,0.488,0.678,0.666,0.643,0.699,0.426,0.489,0.496,0.398
NCI-H1666,0.805,0.876,0.568,0.523,0.753,0.73,0.695,0.709,0.953,0.927,0.81,0.655,0.589,0.703,0.765,0.684,0.63,0.675,0.652,0.586
COR-L 105,0.414,0.283,0.209,0.181,0.941,0.895,0.67,0.629,0.82,0.741,0.815,0.481,0.656,0.568,0.624,0.779,0.428,0.436,0.441,0.408
LU99A,0.514,0.567,0.281,0.204,0.51,0.506,0.523,0.421,0.862,0.77,0.72,0.822,0.854,0.937,0.921,0.903,0.41,0.419,0.413,0.35
201T,0.552,0.506,0.464,0.276,1.05,0.941,1.03,1.03,1.23,1.28,1.23,1.21,0.817,0.892,0.882,0.842,0.356,0.344,0.342,0.332
HCC-15,0.639,0.627,0.492,0.301,0.92,0.897,0.846,0.852,0.687,0.622,0.617,0.62,0.63,0.774,0.549,0.353,0.695,0.792,0.662,0.653
